In article PMC12707362, “Targeting Aurora Kinases as Essential Cell‐Cycle Regulators to Deliver Multi‐Stage Antimalarials Against Plasmodium Falciparum” (Angewandte Chemie (International Ed. in English), 2025):
Read-outs that look alike come from different tables or passages of the source.

System: P. berghei liver schizonts in HepG2-A16-CD81EGFP cells
Test: P. berghei (PbLuc) liver stage assay
Type: cell-based
Conditions: Plasmodium berghei
Excerpt: (B) Antiplasmodial activity of nine anticancer aurora kinase inhibitors (selected based on their PfNF54 ABS activity) against P. falciparum multidrug-resistant ABS parasites (PfDd2 and PfK1). (C) Kinobead competitive inhibition data.
Plasmodium berghei (Pb) sporozoites were obtained by dissecting the salivary glands of infected Anopheles stephensi mosquitoes. These were provided by The SporoCore, at the University of Georgia, GA, USA (SporoCore.uga.edu). The parasites utilised a GFP-Lucama1-eef1 reporter line^[5]. These engineered parasites, termed Pb-Luc, were used to infect HepG2-A16-CD81EGFP cells. HepG2-A16-CD81EGFP cells stably transformed to express a GFP-CD81 fusion protein^[6] were cultured at 37 °C in 5% CO2 in DMEM (Invitrogen, Carlsbad, USA) supplemented with 10% FBS (Corning, NY, USA), 1X Pen/Strep/Glu (Thermo Fisher Scientific, USA). Compounds were prepared as 10 mM solutions in DMSO, and 10 nL of each (resulting in a final DMSO concentration of 0.1% per well) was transferred into assay plates using an ECHO 650 (Beckman). Concentrations ranged from 10 µM to 0.5 nM. Atovaquone (0.1 µM) served as a positive control, while 0.1% DMSO was used as a negative control. Liver stage (PbLuc) screening has been previously described^[7]. Human hepatic cells (3 × 10^3; HepG2-A16-CD81-EGFP) suspended in 5 µL of DMEM medium ([…], supplemented with 5% FBS, 5× Pen/Strep/Glu) were seeded in 1536-well plates (Greiner BioOne) using the MultiFlo FX (Agilent) 20 h before infection. PbLuc sporozoites, isolated from the salivary glands of A. stephensi mosquitoes, were filtered twice through a 20 µm nylon pore cell strainer. The sporozoites were resuspended in screening media, counted with a hemocytometer, and diluted to a final concentration of 200 sporozoites per µL. Each well received 1,000 sporozoites in 5 µL, dispensed via the GNF Dispenser II (GNF Systems). […] Luminescence was measured immediately with the Pherastar FSX reader (BMG Labtech). Luminescence values were normalized using the positive and negative controls. EC50 values were calculated with CDD Vault (Burlingame, CA). […]

## COc1cc(N2CCC(N3CCN(C)CC3)CC2)ccc1Nc1ncc(Cl)c(Nc2ccccc2S(=O)(=O)C(C)C)n1 [TAE684, NVP-TAE684]
read-out: IC50 P. berghei liver schizonts
  IC50: < 200 nM
48 h, PbLuc, read-out: Pb liver stage IC50
  IC50: 660 nM
